Results reported in the supplement of paper PMC8671470.

Experiments:
Assay in all cases: cell viability (% survival relative to DMSO control); higher = less cytotoxic
Conditions in all cases: 72 h
Mono-Mac-6 = tested on: Mono-Mac-6
Description: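 8x8 drug-combination matrices (0–5000 nM; rosiglitazone and lestaurtinib 0–1000 nM) were run in Mono-Mac-6 cells for 72 h with CellTiter-Glo read-out. Survival is normalised to DMSO and 10 µM bortezomib and clipped at 100%.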

BV-173 = tested on: BV-173
Description: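 8x8 drug-combination matrices (0–5000 nM; rosiglitazone and lestaurtinib 0–1000 nM) were run in BV-173 cells for 72 h with CellTiter-Glo read-out. Survival is normalised to DMSO and 10 µM bortezomib and clipped at 100%.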

MV4-11 = tested on: MV4-11
Description: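 8x8 drug-combination matrices (0–5000 nM; rosiglitazone and lestaurtinib 0–1000 nM) were run in MV4-11 cells for 72 h with CellTiter-Glo read-out. Survival is normalised to DMSO and 10 µM bortezomib and clipped at 100%.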

O=C(C1CC1)N1CC[C@@H](C=C2NNC(=O)N2c2ccc(-c3ccc4occc4c3)cc2)C1 + O=C(c1c2ccccc2cc2ccccc12)N1CCC(N2CCC[C@@H](C(=O)N3CCOCC3)C2)CC1 [CP-640186]
cell viability [%]
Conditions | drug1 concentration 5 nM | drug1 concentration 10 nM | drug1 concentration 50 nM | drug1 concentration 100 nM | drug1 concentration 500 nM | drug1 concentration 1000 nM | drug1 concentration 5000 nM
BV-173, drug2 concentration 5 nM | 96.3 | > 100 | > 100 | > 100 | 97.3 | 98.1 | 77.8
BV-173, drug2 concentration 10 nM | > 100 | > 100 | 87.8 | > 100 | > 100 | 96.1 | 58.3
BV-173, drug2 concentration 50 nM | > 100 | > 100 | > 100 | > 100 | 91.1 | 78.9 | 97.1
BV-173, drug2 concentration 100 nM | > 100 | > 100 | > 100 | > 100 | > 100 | > 100 | > 100
BV-173, drug2 concentration 500 nM | > 100 | > 100 | > 100 | > 100 | > 100 | > 100 | 96.6
BV-173, drug2 concentration 1000 nM | 86.4 | > 100 | > 100 | 91.9 | > 100 | > 100 | > 100
BV-173, drug2 concentration 5000 nM | > 100 | > 100 | 87.5 | 99.5 | 91.6 | > 100 | > 100
MV4-11, drug2 concentration 5 nM | 95.4 | 96.1 | 93.4 | 98.1 | 97.2 | 100 | > 100
MV4-11, drug2 concentration 10 nM | 89.8 | > 100 | > 100 | > 100 | > 100 | > 100 | 88.2
MV4-11, drug2 concentration 50 nM | > 100 | 98.5 | > 100 | > 100 | 83.6 | > 100 | > 100
MV4-11, drug2 concentration 100 nM | 98.3 | > 100 | > 100 | > 100 | > 100 | > 100 | > 100
MV4-11, drug2 concentration 500 nM | > 100 | 91 | 88.9 | 90.1 | > 100 | > 100 | 97.5
MV4-11, drug2 concentration 1000 nM | > 100 | 97.9 | 98.6 | > 100 | > 100 | > 100 | > 100
MV4-11, drug2 concentration 5000 nM | 98.1 | 86 | 96.1 | > 100 | 91.9 | 86.4 | 92.3
Mono-Mac-6, drug2 concentration 5 nM | 77.8 | > 100 | 88.2 | 84.8 | 85.5 | 88.8 | > 100
Mono-Mac-6, drug2 concentration 10 nM | > 100 | > 100 | > 100 | 90.7 | 81.2 | > 100 | 63.7
Mono-Mac-6, drug2 concentration 50 nM | 99.3 | 89.7 | > 100 | > 100 | > 100 | > 100 | > 100
Mono-Mac-6, drug2 concentration 100 nM | 87.7 | > 100 | > 100 | 99.8 | > 100 | 91.2 | 87.4
Mono-Mac-6, drug2 concentration 500 nM | 95.2 | 87 | 87.4 | 86.2 | > 100 | > 100 | 79.5
Mono-Mac-6, drug2 concentration 1000 nM | 88.8 | > 100 | > 100 | 84.9 | > 100 | 98.8 | 99.4
Mono-Mac-6, drug2 concentration 5000 nM | > 100 | 70.2 | 98.1 | 99.4 | 81.6 | 72.4 | > 100

O=C(C1CC1)N1CC[C@@H](C=C2NNC(=O)N2c2ccc(-c3ccc4occc4c3)cc2)C1 + C[C@H](NC(=O)c1sccc1OCc1ccc(Cl)cc1)c1ccccc1 [as1949490]
cell viability [%]
Conditions | drug1 concentration 5 nM | drug1 concentration 10 nM | drug1 concentration 50 nM | drug1 concentration 100 nM | drug1 concentration 500 nM | drug1 concentration 1000 nM | drug1 concentration 5000 nM
BV-173, drug2 concentration 5 nM | > 100 | > 100 | > 100 | > 100 | 91.8 | 93.3 | 80.6
BV-173, drug2 concentration 10 nM | 94.1 | > 100 | > 100 | > 100 | > 100 | > 100 | > 100
BV-173, drug2 concentration 50 nM | > 100 | > 100 | > 100 | 85 | > 100 | 88.7 | 96.7
BV-173, drug2 concentration 100 nM | > 100 | 80.2 | > 100 | 88.5 | > 100 | 96 | 84.7
BV-173, drug2 concentration 500 nM | 85.5 | > 100 | 84.8 | > 100 | 91.2 | 92.3 | 77.2
BV-173, drug2 concentration 1000 nM | > 100 | 87.6 | 99.3 | > 100 | 80.2 | 73.6 | 58.5
BV-173, drug2 concentration 5000 nM | 65.2 | 44.9 | 73.8 | 46 | 44.2 | 57.2 | 0
MV4-11, drug2 concentration 5 nM | > 100 | > 100 | > 100 | 83.1 | > 100 | 96.5 | > 100
MV4-11, drug2 concentration 10 nM | > 100 | > 100 | > 100 | > 100 | > 100 | > 100 | > 100
MV4-11, drug2 concentration 50 nM | > 100 | 99 | > 100 | > 100 | > 100 | > 100 | > 100
MV4-11, drug2 concentration 100 nM | > 100 | 80.4 | > 100 | 92.8 | 92.2 | > 100 | 98.4
MV4-11, drug2 concentration 500 nM | > 100 | 96.5 | > 100 | > 100 | > 100 | 93.8 | > 100
MV4-11, drug2 concentration 1000 nM | > 100 | > 100 | 98 | 89.7 | 86.3 | > 100 | 61.8
MV4-11, drug2 concentration 5000 nM | 77.3 | 85.6 | 71.7 | 79.5 | 62 | 58.4 | 72
Mono-Mac-6, drug2 concentration 5 nM | 77.9 | > 100 | 94.8 | 82.5 | > 100 | 88.6 | 91.3
Mono-Mac-6, drug2 concentration 10 nM | > 100 | > 100 | > 100 | 84.4 | > 100 | 98.4 | > 100
Mono-Mac-6, drug2 concentration 50 nM | > 100 | > 100 | > 100 | > 100 | 88.9 | 91.8 | > 100
Mono-Mac-6, drug2 concentration 100 nM | 90 | 96.4 | > 100 | 94.7 | 77.3 | > 100 | 69.7
Mono-Mac-6, drug2 concentration 500 nM | 90.5 | 78 | 74.2 | > 100 | > 100 | > 100 | 80.7
Mono-Mac-6, drug2 concentration 1000 nM | 95 | > 100 | 97.3 | > 100 | 77.3 | 91.1 | 75.6
Mono-Mac-6, drug2 concentration 5000 nM | 79 | 73.5 | > 100 | 96.3 | 73.3 | 91.3 | 54.6
